Holding throughout (experiment): inhibition of tumour cell growth, NCI panel, 48 h
For experiment [1], the system named is SK-OV-3 ovarian.
Experiment [2] concerns SK-MEL-5 melanoma.
Experiment [3] deals with IGROV1 ovarian.
The subject of experiment [4] is HL-60(TB) leukemia.
Experiment [5] deals with EKVX NSCLC.
Experiment [6] deals with NCI-H522 lung.
For experiment [7], the system named is HOP-62 NSCLC.
Experiment [8] concerns MCF7 breast.
The subject of experiment [9] is LOX IMVI melanoma.
For experiment [10], the system named is HOP-92 NSCLC.

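All cell lines were grown in 96-well plates and treated with compound for 48 hours. Here, GI50 denotes the concentration required for 50% inhibition of growth. TGI is the concentration that stops growth completely.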 Some results are limits rather than exact numbers.

Regarding `CC(C)C[CH2][Ge]([CH2]CC(C)C)([CH2]CC(C)C)[CH2]CC(C)C`, the GI50 in experiment [1], in [2], in experiment [3], in experiment [4], in [5] and in [6] was more than 100 µM throughout. In addition, the GI50 in experiment [7], in experiment [8] and in experiment [9] was more than 100 µM each time. In addition, the TGI in experiment [1], in experiment [2], in experiment [3], in [4], in [5] and in experiment [6] was more than 100 µM each time. Also, the TGI in experiment [7], in experiment [8] and in experiment [9] was more than 100 µM each time.
On to `COc1ccc(-n2cc(-c3cc(OC)c(OC)c(OC)c3)[nH]c2=S)cc1Cl`, for which the GI50 in experiment [1] is 17 µM; in experiment [2], 27.2 µM; in experiment [3] it was 25.6 µM; in [4], more than 100 µM; in experiment [5] it was 37.3 µM; in [6] it was more than 100 µM. In addition, the GI50 is 22.1 µM in experiment [7], 68 µM in experiment [8], 6.12 µM in [9] and 14 µM in experiment [10]. Also, the TGI in experiment [1] was 48.3 µM; in experiment [2] it was more than 100 µM; in experiment [3] it was more than 100 µM; in experiment [4], more than 100 µM; in experiment [5], more than 100 µM; in experiment [6], more than 100 µM. In addition, the TGI is 52.8 µM in experiment [7], more than 100 µM in experiment [8], more than 100 µM in experiment [9] and 33 µM in experiment [10].
With `O=C(Nc1ccc(Nc2ccncc2)cc1)c1ccc(Nc2ccnc3ccc([N+](=O)[O-])cc23)cc1[N+](=O)[O-]`, the GI50 was 19.3 µM in experiment [1]; 25.8 µM in [2]; 14.1 µM in experiment [3]; 25 µM in experiment [4]; 22.5 µM in [5]; 21.9 µM in [6]. The GI50 in experiment [7] is 24.8 µM; in experiment [8] it was 4.73 µM; in experiment [9], 4.82 µM; in experiment [10], 24.6 µM. The TGI is 40 µM in [1]; more than 100 µM in experiment [2]; more than 83.7 µM in experiment [3]; more than 58.7 µM in experiment [4]; more than 100 µM in experiment [5]; 68.6 µM in [6]. For the same compound, the TGI was more than 100 µM in experiment [7], more than 100 µM in experiment [8], more than 51 µM in experiment [9] and more than 74.2 µM in experiment [10].
Regarding `CN1CCN(c2ccc3nc(-c4[nH]ncc4Nc4ncnc5c4OCCCN5)[nH]c3c2)CC1`, the GI50 in experiment [1] is less than 0.0108 µM; in experiment [2] it was 0.0204 µM; in [3], less than 0.01 µM; in experiment [4], less than 0.01 µM; in [5], 0.0168 µM; in experiment [6], less than 0.0117 µM. Also, the GI50 was 0.0101 µM in experiment [7], less than 0.01 µM in [8], less than 0.01 µM in experiment [9] and less than 0.0107 µM in [10]. In addition, the TGI in experiment [1] is 0.202 µM; in [2] it was 0.0976 µM; in experiment [3], 0.0707 µM; in experiment [4], 0.0298 µM; in [5], 0.183 µM; in experiment [6], 0.0488 µM. In addition, the TGI in [7] was 0.062 µM; in experiment [8] it was 0.145 µM; in experiment [9], 0.0202 µM; in experiment [10], 0.0429 µM.
Consider `C=C(C)[C@@H]1CC[C@]2(C(=O)O)CC[C@]3(C)[C@H](CC[C@@H]4[C@@]5(C)C/C(=C/c6cccc(I)c6)C(=O)C(C)(C)[C@@H]5CC[C@]43C)[C@@H]12`, for which the GI50 in experiment [1] was 3.27 µM; in experiment [2] it was 1.8 µM; in experiment [3], 2.57 µM; in experiment [4], 2.6 µM; in experiment [5] it was 2.65 µM; in experiment [6], 2.1 µM. The GI50 was 3.24 µM in experiment [7], 2.64 µM in experiment [8], 1.72 µM in experiment [9] and 1.72 µM in [10]. The TGI amounted to 11.9 µM in experiment [1]; 3.44 µM in [2]; 8.7 µM in [3]; 8.58 µM in [4]; 12.7 µM in [5]; 6.94 µM in experiment [6]. In addition, the TGI was determined as 12.6 µM in experiment [7], 10.5 µM in experiment [8], 3.58 µM in experiment [9] and 5.28 µM in experiment [10].
Turning to `CCOC(=O)c1ccc(N(C=O)CCC(=O)CCl)cc1`, the GI50 in [1] is 1.41 µM; in experiment [2] it was 0.344 µM; in experiment [3], 0.537 µM; in [4] it was 0.0438 µM; in experiment [6] it was 0.138 µM; in [7], 0.485 µM. In addition, the GI50 is 0.0532 µM in [8], 0.0586 µM in [9] and 0.064 µM in experiment [10]. Also, the TGI in experiment [1] turned out to be 13.2 µM; in experiment [2], 1.55 µM; in [3], 8.33 µM; in [4] it was 0.351 µM; in experiment [6] it was 0.617 µM; in [7], 13.4 µM. In addition, the TGI in experiment [9] was found to be 1.31 µM; in [10], 0.794 µM.
Consider `O=C(NO)c1ccc(Cn2c(=O)n(-c3ccccc3)c(=O)c3ccccc32)cc1`, for which the GI50 in experiment [1] is 1.3 µM; in experiment [2], 1.06 µM; in [4], 2.66 µM; in [5], 1.11 µM; in [7], 1.32 µM; in [8] it was 1.73 µM. For the same compound, the GI50 was 1.26 µM in experiment [9] and 1.6 µM in experiment [10]. The TGI was 3.17 µM in [1]; 2.3 µM in experiment [2]; more than 100 µM in experiment [4]; 2.69 µM in experiment [5]; 3.24 µM in [7]; 60.2 µM in experiment [8]. For the same compound, the TGI in experiment [9] was determined as 2.62 µM; in [10] it was 4.18 µM.
As for `O=C(Cc1ccc(Nc2ccnc(C(F)(F)F)c2)cc1)Nc1cc(Cl)ccc1O`, the GI50 in experiment [1] was 15.8 µM; in [2], 3.86 µM; in [3], 6.34 µM; in experiment [4], 1.7 µM; in experiment [5], 3.12 µM; in [7], 12.5 µM. In addition, the GI50 is 4.99 µM in experiment [8], 6.46 µM in [9] and 1.96 µM in experiment [10]. The TGI is 54.9 µM in experiment [1]; 14.7 µM in experiment [2]; 30 µM in experiment [3]; 5.35 µM in experiment [4]; 16.9 µM in [5]; 32.5 µM in experiment [7]. For the same compound, the TGI in experiment [8] was 42.8 µM; in experiment [9] it was 28.5 µM; in experiment [10], 8.44 µM.
